The values that follow are results of earlier work, collected in patent publication US10981914B2, “Toll-like receptor 7 (TLR7) agonists having a tricyclic moiety, conjugates thereof, and methods and uses therefor” (BRISTOL-MYERS SQUIBB COMPANY, priority 2017, dated 2021).

The test system of this data set is IFN-α. The note with it: as measured by IFN-α induction.

`CCCCOc1nc(N)c2c(n1)N(Cc1cccc(CN3CCCC3)c1)CC(=O)N2` [Vesatolimod, vesatolimod]: the “potency, fold less than that of the corresponding purine-8-one compound” value is listed as 100 ×.
